The values that follow come from patent publication US10010589B2, “Modified therapeutic agents, stapled peptide lipid conjugates, and compositions thereof” (priority 2013, dated 2018).

Read-outs that look alike come from different tables or passages of the source. *1 amine or outer side, *2 acyl side, *3 side chain or, on linkers, in order; H or OH if unused. Where a SMILES comes first, the peptide text is derived from it. Bridges are numbered along the chain shown (N, C = ends). [ ]: non-standard residue; d: D form. CH2CONH(CH2)4NHCOCH2 = O=C(C[*:1])NCCCCNC(=O)C[*:2]; CH2CONHCH2CH2NHCOCH2 = O=C(C[*:1])NCCNC(=O)C[*:2]; X1 = O=C(c1ccc(C[*:1])cc1)c1ccc(C[*:2])cc1

Experiment [1] concerns the target T1, human glucagon receptor (GCGR) (Homo sapiens, UniProt P47871).
T1 construct: expressed in transfected cells
In words: GCGR CRE luciferase assay (receptor-mediated cAMP synthesis). It is filed as cell-based. The procedure:
(§1) CREB responsive luciferase stable HEK 293 cell line overexpressing human glucagon receptor (GCGR), glucagon-like peptide 1 receptor (GLP-1R), Glucose-dependent insulinotropic polypeptide receptor (GIPR), or Glucagon-like peptide 2 receptor (GLP-2R) was generated as follows.
(§2) HEK293 cells were infected with lent virus encoding firefly luciferase gene under the control of CRE promoter, as described in the manual (Qiagen, Netherlands) and then were selected using 1 μg/mL puromycin (Life technologies, Carlsbad) for 1 week. The survived cells were named as CRE-HEK293, expanded and then transfected with a G418 selective mammalian expression plasmid encoding human GCGR, GLP-1R, GIPR or GLP-2R. In brief, GCGR, GLP-1R, GIPR, or GLP-2R plasmid was transfected into CRE-HEK293 cells using Lipofectamine 2000 and selected with 400 μg/mL geneticin (Life technologies, Carlsbad, Calif.). Single colony stable cell lines overexpressing both CRE-luciferase and GCGR, GLP-1R, GIPR, or GLP-2R were then established for in vitro activity assays. These four stable cell lines were named as HEK293-GCGR-CRE, HEK293-GLP-1R-CRE, HEK293-GIPR-CRE, and HEK293-GLP-2R-CRE.
HEK293-GCGR-CRE, HEK293-GLP-1R-CRE, HEK293-GIPR-CRE, and HEK293-GLP-2R-CRE cells were seeded in a white 384-well plate at a density of 5,000 cells per well and cultured for 24 hours. Cells were treated with different peptides in a dose dependent manner. On the next day, 10 μl of Bright-Glo reagent (Promega, Madison, Wis.) were added into each well and firefly luminescence was determined using an Envision multilabel plate reader (PerkinElmer, Waltham, Mass.). EC50 of each peptide was calculated using GraphPad Prism 6 software (GraphPad, San Diego, Calif.).

Experiment [2] deals with T2, human glucagon-like peptide 1 receptor (GLP-1R) (Homo sapiens, UniProt P43220).
T2 construct: expressed in transfected cells
T2 sequence (P43220 24-463): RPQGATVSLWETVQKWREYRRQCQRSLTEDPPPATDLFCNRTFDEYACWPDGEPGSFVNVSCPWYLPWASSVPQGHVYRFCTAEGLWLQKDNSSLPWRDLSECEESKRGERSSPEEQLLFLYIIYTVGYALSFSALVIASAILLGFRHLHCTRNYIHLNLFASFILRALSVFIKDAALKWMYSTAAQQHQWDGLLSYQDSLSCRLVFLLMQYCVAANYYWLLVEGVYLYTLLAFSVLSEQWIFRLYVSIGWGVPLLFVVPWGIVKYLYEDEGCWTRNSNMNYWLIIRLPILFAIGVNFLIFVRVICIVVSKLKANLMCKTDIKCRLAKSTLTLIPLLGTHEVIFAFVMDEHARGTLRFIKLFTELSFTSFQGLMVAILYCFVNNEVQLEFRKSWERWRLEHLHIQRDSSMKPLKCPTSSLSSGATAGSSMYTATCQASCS
In words: cell-based. The procedure: as §2
Cells were treated with different peptides in a dose dependent manner. On the next day, 10 μl of Bright-Glo reagent (Promega, Madison, Wis.) were added into each well and firefly luminescence was determined using an Envision multilabel plate reader (PerkinElmer, Waltham, Mass.). EC50 of each peptide was calculated using GraphPad Prism 6 software (GraphPad, San Diego, Calif.).

In experiment [3] the target is T3, human Glucose-dependent insulinotropic polypeptide receptor (GIPR) (Homo sapiens, UniProt P48546).
T3 construct: expressed in transfected cells
T3 sequence (P48546 22-466): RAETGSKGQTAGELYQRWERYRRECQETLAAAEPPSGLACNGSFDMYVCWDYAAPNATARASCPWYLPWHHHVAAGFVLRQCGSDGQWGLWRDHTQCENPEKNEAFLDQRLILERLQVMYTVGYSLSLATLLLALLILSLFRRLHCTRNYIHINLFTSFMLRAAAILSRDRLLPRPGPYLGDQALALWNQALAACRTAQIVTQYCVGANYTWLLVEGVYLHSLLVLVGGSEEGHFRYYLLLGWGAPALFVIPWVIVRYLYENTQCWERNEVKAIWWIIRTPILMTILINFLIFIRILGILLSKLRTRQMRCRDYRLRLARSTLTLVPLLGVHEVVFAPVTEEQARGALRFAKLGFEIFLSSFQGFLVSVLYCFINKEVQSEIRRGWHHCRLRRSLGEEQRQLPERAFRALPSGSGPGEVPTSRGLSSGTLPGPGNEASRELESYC
In words: GIPR CRE luciferase assay (receptor-mediated cAMP synthesis). It is filed as cell-based. The procedure: as §1
as §2, with “Single colony stable cell lines overexpressing both CRE-luciferase and GCGR, GLP-1R, GIPR, or GLP-2R were then established for in vitro activity assays. These four stable cell lines were named as HEK293-GCGR-CRE, HEK293-GLP-1R-CRE, HEK293-GIPR-CRE, and HEK293-GLP-2R-CRE.” left out
HEK293-GCGR-CRE, HEK293-GLP-1R-CRE, HEK293-GIPR-CRE, and HEK293-GLP-2R-CRE cells were seeded in a white 384-well plate at a density of 5,000 cells per well and cultured for 24 hours. […] On the next day, 10 μl of Bright-Glo reagent (Promega, Madison, Wis.) were added into each well and firefly luminescence was determined using an Envision multilabel plate reader (PerkinElmer, Waltham, Mass.). EC50 of each peptide was calculated using GraphPad Prism 6 software (GraphPad, San Diego, Calif.).

[4] abbreviates: HEK293-GLP-1R-CRE cells, luciferase readout, Table 6, read-out: GLP-1R (EC50).

T1 sequence (P47871 26-477): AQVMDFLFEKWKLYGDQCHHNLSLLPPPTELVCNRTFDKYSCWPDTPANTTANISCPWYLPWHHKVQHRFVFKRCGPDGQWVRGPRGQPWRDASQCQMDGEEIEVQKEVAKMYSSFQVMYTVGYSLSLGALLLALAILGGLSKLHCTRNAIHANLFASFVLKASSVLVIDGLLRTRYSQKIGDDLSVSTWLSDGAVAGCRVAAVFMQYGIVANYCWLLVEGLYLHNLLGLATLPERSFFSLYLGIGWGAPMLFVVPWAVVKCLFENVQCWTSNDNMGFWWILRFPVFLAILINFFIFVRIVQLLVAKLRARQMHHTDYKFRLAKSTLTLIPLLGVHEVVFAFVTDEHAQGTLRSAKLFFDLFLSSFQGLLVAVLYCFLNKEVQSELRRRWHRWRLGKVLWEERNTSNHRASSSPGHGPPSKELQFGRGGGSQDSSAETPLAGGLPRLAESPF

As usually defined, the EC50 is the concentration that produces a half-maximal response. On to `CC[C@H](C)[C@H](NC(=O)[C@H](CC(N)=O)NC(=O)[C@H](CC(N)=O)NC(=O)[C@H](CCCNC(=N)N)NC(=O)[C@H](CC(N)=O)NC(=O)[C@H](CCCNC(=N)N)NC(=O)[C@H](CCCCN)NC(=O)[C@@H](NC(=O)[C@H](CC(N)=O)NC(=O)[C@H](CCSC)NC(=O)[C@H](CC(C)C)NC(=O)[C@H](Cc1c[nH]c2ccccc12)NC(=O)[C@@H]1CSCc2ccc(cc2)C(=O)c2ccc(cc2)CSC[C@H](NC(=O)[C@H](CCC(=O)O)NC(=O)[C@H](CC(=O)O)NC(=O)[C@H](CC(C)C)NC(=O)[C@H](Cc2ccc(O)cc2)NC(=O)[C@H](CCCCN)NC(=O)[C@H](CO)NC(=O)[C@H](Cc2ccc(O)cc2)NC(=O)[C@H](CC(=O)O)NC(=O)[C@H](CO)NC(=O)[C@@H](NC(=O)[C@H](Cc2ccccc2)NC(=O)[C@@H](NC(=O)CNC(=O)[C@H](CCC(N)=O)NC(=O)[C@@H](CO)NC(=O)[C@@H](N)Cc2c[nH]cn2)[C@@H](C)O)[C@@H](C)O)C(=O)N[C@@H](C)C(=O)N[C@@H](C)C(=O)N[C@@H](CCCCN)C(=O)N[C@@H](CCC(=O)O)C(=O)N[C@@H](Cc2ccccc2)C(=O)N[C@@H]([C@@H](C)CC)C(=O)N1)[C@@H](C)O)C(=O)N[C@@H](C)C(N)=O` [mTA21] (H-H[dS]QGTFTSDYSKYLDECAAKEFICWLMNTKRNRNNIA-NH2; linker 17-24 via X1), for which the EC50 came out at 0.7 nM in experiment [1] and 0.12 nM in experiment [2] (setting [4]).
In the same order, the values of `CC[C@H](C)[C@H](NC(=O)[C@H](CC(N)=O)NC(=O)[C@H](CC(N)=O)NC(=O)[C@H](CCCNC(=N)N)NC(=O)[C@H](CC(N)=O)NC(=O)[C@H](CCCNC(=N)N)NC(=O)[C@H](CCCCN)NC(=O)[C@@H](NC(=O)[C@H](CC(N)=O)NC(=O)[C@H](CCSC)NC(=O)[C@H](CC(C)C)NC(=O)[C@H](Cc1c[nH]c2ccccc12)NC(=O)[C@@H]1CSCC(=O)NCCNC(=O)CSC[C@H](NC(=O)[C@H](CCC(=O)O)NC(=O)[C@H](CC(=O)O)NC(=O)[C@H](CC(C)C)NC(=O)[C@H](Cc2ccc(O)cc2)NC(=O)[C@H](CCCCN)NC(=O)[C@H](CO)NC(=O)[C@H](Cc2ccc(O)cc2)NC(=O)[C@H](CC(=O)O)NC(=O)[C@H](CO)NC(=O)[C@@H](NC(=O)[C@H](Cc2ccccc2)NC(=O)[C@@H](NC(=O)CNC(=O)[C@H](CCC(N)=O)NC(=O)[C@@H](CO)NC(=O)[C@@H](N)Cc2c[nH]cn2)[C@@H](C)O)[C@@H](C)O)C(=O)N[C@@H](C)C(=O)N[C@@H](C)C(=O)N[C@@H](CCCCN)C(=O)N[C@@H](CCC(=O)O)C(=O)N[C@@H](Cc2ccccc2)C(=O)N[C@@H]([C@@H](C)CC)C(=O)N1)[C@@H](C)O)C(=O)N[C@@H](C)C(N)=O` [mTA24] (H-H[dS]QGTFTSDYSKYLDECAAKEFICWLMNTKRNRNNIA-NH2; linker 17-24 via CH2CONHCH2CH2NHCOCH2) are 3 nM and 0.2 nM.
For the compound `CC[C@H](C)[C@@H]1NC(=O)[C@H](Cc2ccccc2)NC(=O)[C@H](CCC(=O)O)NC(=O)[C@H](CCCCN)NC(=O)[C@H](C)NC(=O)[C@H](C)NC(=O)[C@@H](NC(=O)[C@H](CCC(=O)O)NC(=O)[C@H](CC(=O)O)NC(=O)[C@H](CC(C)C)NC(=O)[C@H](Cc2ccc(O)cc2)NC(=O)[C@H](CCCCN)NC(=O)[C@H](CO)NC(=O)[C@H](Cc2ccc(O)cc2)NC(=O)[C@H](CC(=O)O)NC(=O)[C@H](CO)NC(=O)[C@@H](NC(=O)[C@H](Cc2ccccc2)NC(=O)[C@@H](NC(=O)CNC(=O)[C@H](CCC(N)=O)NC(=O)[C@@H](CO)NC(=O)[C@@H](N)Cc2c[nH]cn2)[C@@H](C)O)[C@@H](C)O)CSCC(=O)NCCCCNC(=O)CSC[C@@H](C(=O)N[C@@H](Cc2c[nH]c3ccccc23)C(=O)N[C@@H](CC(C)C)C(=O)N[C@@H](CC(C)C)C(=O)N[C@@H](CCCNC(=N)N)C(=O)N[C@@H](C)C(N)=O)NC1=O` [mTA29] (H-H[dS]QGTFTSDYSKYLDECAAKEFICWLLRA-NH2; linker 17-24 via CH2CONH(CH2)4NHCOCH2), the EC50 in experiment [1] and in experiment [2] (setting [4]) was 0.03 nM throughout.
Take `CC[C@H](C)[C@H](NC(=O)[C@H](CO)NC(=O)[C@H](Cc1ccc(O)cc1)NC(=O)[C@H](CC(=O)O)NC(=O)[C@H](CO)NC(=O)[C@@H](NC(=O)[C@H](Cc1ccccc1)NC(=O)[C@@H](NC(=O)CNC(=O)[C@H](CCC(=O)O)NC(=O)[C@@H](C)NC(=O)[C@@H](N)Cc1ccc(O)cc1)[C@@H](C)O)[C@@H](C)O)C(=O)N[C@@H](Cc1ccc(O)cc1)C(=O)N[C@@H](CC(C)C)C(=O)N[C@@H](CC(=O)O)C(=O)N[C@@H](CCCCN)C(=O)N[C@H]1CSCC(=O)NCCCCNC(=O)CSC[C@@H](C(=O)N[C@@H](Cc2c[nH]c3ccccc23)C(=O)N[C@@H](CC(C)C)C(=O)N[C@@H](CC(C)C)C(=O)N[C@@H](C)C(=O)NCC(=O)NCC(=O)N2CCC[C@H]2C(=O)N[C@@H](CO)C(=O)N[C@@H](CO)C(=O)NCC(=O)N[C@@H](C)C(=O)N2CCC[C@H]2C(=O)N2CCC[C@H]2C(=O)N2CCC[C@H]2C(=O)N[C@@H](CO)C(=O)N[C@@H](CCCCN)C(N)=O)NC(=O)[C@H](C(C)C)NC(=O)[C@H](Cc2ccccc2)NC(=O)[C@H](CCC(=O)O)NC(=O)[C@H](CCCCN)NC(=O)[C@H](C)NC(=O)[C@H](C)NC1=O` [mTA40] (H-Y[dA]EGTFTSDYSIYLDKCAAKEFVCWLLAGGPSSGAPPPSK-NH2; linker 17-24 via CH2CONH(CH2)4NHCOCH2): the EC50 in experiment [3] and in experiment [2] was 0.02 nM each time.
For `CC[C@H](C)[C@H](NC(=O)[C@H](CC(N)=O)NC(=O)[C@H](CC(N)=O)NC(=O)[C@H](CCCNC(=N)N)NC(=O)[C@H](CC(N)=O)NC(=O)[C@H](CCCNC(=N)N)NC(=O)[C@H](CCCCN)NC(=O)[C@@H](NC(=O)[C@H](CC(N)=O)NC(=O)[C@H](CCSC)NC(=O)[C@H](CC(C)C)NC(=O)[C@H](Cc1c[nH]c2ccccc12)NC(=O)[C@@H]1CSCC(=O)NCCCCNC(=O)CSC[C@H](NC(=O)[C@H](CCC(=O)O)NC(=O)[C@H](CC(=O)O)NC(=O)[C@H](CC(C)C)NC(=O)[C@H](Cc2ccc(O)cc2)NC(=O)[C@H](CCCCN)NC(=O)[C@H](CO)NC(=O)[C@H](Cc2ccc(O)cc2)NC(=O)[C@H](CC(=O)O)NC(=O)[C@H](CO)NC(=O)[C@@H](NC(=O)[C@H](Cc2ccccc2)NC(=O)[C@@H](NC(=O)CNC(=O)[C@H](CCC(=O)O)NC(=O)[C@@H](C)NC(=O)[C@@H](N)Cc2ccc(O)cc2)[C@@H](C)O)[C@@H](C)CC)C(=O)N[C@@H](C)C(=O)N[C@@H](C)C(=O)N[C@@H](CCCCN)C(=O)N[C@@H](CCC(=O)O)C(=O)N[C@@H](Cc2ccccc2)C(=O)N[C@@H]([C@@H](C)CC)C(=O)N1)[C@@H](C)O)C(=O)N[C@@H](C)C(N)=O` [mTA44] (H-Y[dA]EGTFISDYSKYLDECAAKEFICWLMNTKRNRNNIA-NH2; linker 17-24 via CH2CONH(CH2)4NHCOCH2), the EC50 turned out to be 0.04 nM in experiment [3] (HEK293-GIPR-CRE cells, luciferase readout, Table 8, read-out: GIP-R (EC50)); 1.6 nM in experiment [1]; 9.7 nM in experiment [2] (HEK293-GLP-1R-CRE cells, luciferase readout, Table 8, read-out: GLP-1R (EC50)).
